Results as given in article PMC8202924, “Emodepside targets SLO-1 channels of Onchocerca ochengi and induces broad anthelmintic effects in a bovine model of onchocerciasis” (PLoS Pathogens, 2021).
Where “and” joins values, the source holds several entries; their conditions need not be identical. Equal values may be shown once. Read-outs that look alike come from different tables or passages of the source.

Tests used:
[1] = rat, over four weeks orally in diet; cited from earlier work
Excerpt: Blood glucose has been identified as a simple biomarker for emodepside exposure in humans.

[2] = Plasma PK of emodepside in the main trial, LC-MS/MS; type: in vivo, zebu (Ngaoundéré Gudali) cattle (B. t. indicus); details: for Model tmax in plasma: two-compartment model; for Tmax: bovine, iv, read-out: Time of observed Cmax in plasma (converted)
Procedure: Bovine samples (EDTA-plasma, skin snips and nodules) were stored at –80°C in Cameroon and shipped according to international transportation guidelines on dry ice to Bayer, Germany. Due to suspected contamination with other pathogens, samples required decontamination. Based on modified WHO guidelines for viral inactivation and reports of virus stability in fluids and solid media issued by the United States Army, decontamination of samples was performed. Samples were thawed slowly in a microbiological safety cabinet and the plasma samples were vortexed gently. Skin snips and nodules were homogenized in a Qiagen TissueLyser II (Qiagen NV, Hilden, the Netherlands) with stainless steel beads. Homogenates were weighed and mixed with 4.5 volumes of a 0.5% collagenase solution (collagenase from Clostridium histolyticum [>125 IU/mg] Merck KGaA, Darmstadt, Germany), then incubated at 37°C with orbital mixing at 140 rpm for 48 h.
Plasma samples, skin and nodule homogenates were precipitated in a 1:10 ratio with acetonitrile using a vortex mixer at 150 rpm for 10 min, then centrifuged for 5 min at 14,000 rpm. The supernatants were pipetted into gas-tight vials and incubated at 80°C for 21 min to achieve a core temperature of 80°C for 10 min, then cooled to 4°C in a water-ice bath. Finally, samples were filtered using a cellulose sterile filter (S&S Spartan 13/30) into standard HPLC vials for liquid chromatography–mass spectrometry analysis. For liquid chromatography on a C18 column, a water/methanol gradient (containing 10 mmol ammonium acetate and 0.1 mL/L formic acid) was used. Quantification of emodepside was performed by tandem mass spectrometry on an API 5500 instrument (AB Sciex, Darmstadt, Germany) using the transition of m/z = 1,120 ([M + H]^+) to its product ion m/z = 343. […]
For the PK mean model, the PK of emodepside was modelled using a closed-form, two-compartment IV model according to Eq 1. csdt=dose*c0*exp−ke*t*1+delta*exp+ke*f*t (1) with ke, f and delta being parameters describing the distribution and elimination phase, and c0 being a proportionality factor for the dose.
The multiple IV dose was modelled as an additive single-dose, two-compartment model according to Eq 2. cmdt=∑i=17t−i*tΔ>0?csdt−i*tΔ:0 (2) with i as index of doses (1 to 7), and tΔ the difference in time between consecutive doses (here 24 h).
Parameters describing distribution and elimination of emodepside were fitted to the observed data of all dose steps and animals together using the optim fit function of R and the ‘L-BFGS-B’ method […] box constraints. From the observed data, the maximal observed concentration and the corresponding timepoint were extracted. The terminal half-life was calculated from the last three datapoints. The corresponding mean values were derived from the compartmental model parameters.

[3] = Blood glucose in the main trial, test-strip assay; type: in vivo, zebu (Ngaoundéré Gudali) cattle (B. t. indicus)
Procedure: Glucose concentrations were measured pre- and post-chemotherapy using venous blood, which was analyzed in a test-strip assay (MediTouch 2 blood glucose monitor, Medisana, Neuss, Germany). Both individual animal and group blood-glucose concentrations were compared with a standard reference range for cattle (45–75 mg/dL [58]). To evaluate group-level effects, 95% confidence intervals (CI) were calculated using the group mean, SD and sample number for each group at each respective timepoint, with changes in blood glucose concentration considered significant if either the lower CI exceeded the upper limit of the standard reference range, or the upper CI was below the lower limit of the standard reference range.

[4] = tested on: Onchocerca ochengi adult female worms; assay: Embryogram (uterine contents of female worms from nodules); type: in vivo; details: MRSM, 4 mg/kg every other day for 3 days; P = 0.005
Procedure: (§1) Tattooed nodules were removed under local anesthesia (lidocaine-epinephrine) on study days -1, 90, 180–190, 270–290, 360 and 550 in a randomized order as previously described. Nodules were trimmed of excess tissue and up to four nodules per animal were processed separately as follows: (1) stored frozen at –80°C for PK analysis (up to day 14 only); (2) injected in toto with 10% neutral-buffered formalin and stored at 4°C for histopathology (up to day 290 only); or (3) dissected immediately in phosphate-buffered saline to separate adult male and female worms. The anterior end of the female worm (which even in viable specimens is the only motile part of the parasite) was removed from the worm mass and incubated alongside intact male worms for 30 min at 37°C for visual motility assessment on a three-point scale. The remaining portion of the female worm mass was subjectively scored for fecundity on a four-point scale (0, uteri empty or worm structure degraded; 1, low; 2, intermediate; 3, normal) by examining the uterine contents microscopically in situ. This was followed by a fully quantitative embryogram to enumerate oocytes, embryonic stages and intrauterine Mf as described previously.
The same principle was applied to the analysis of the uterine contents. […] Over all doses and individual animals, an effect size (m) and corresponding statistics were calculated using R’s lm function.

[5] = tested on: Onchocerca ochengi adult female worms; assay: MTT assay for metabolic activity of worms from nodules; type: in vivo; details: MRSM, 4 mg/kg every other day for 3 days; day 550
Procedure: Worms from a second unfixed nodule (at the same timepoints listed above) were subjected to a 3-(4,5-dimethylthiazol-2-yl)-2,5-diphenyltetrazolium bromide (MTT) assay for metabolic activity, in which the insoluble formazan product was dissolved in DMSO and quantified colorimetrically at 620 nm in a microplate reader (model LT4500, Labtech, Heathfield, East Sussex, UK). Finally, dermal microfilarial densities were determined by incubation of skin biopsies (in triplicate per animal per timepoint) and normalized to 100 mg skin [59].

[6] = tested on: Onchocerca ochengi adult male worms; assay: Ex vivo visual motility assessment of adult male worms from nodules; type: in vivo; details: MRSM, 4 mg/kg every other day for 3 days; day 550; n = 1
Procedure: as §1
The second class of PD endpoint considered was worm motility, which was recorded as a three-class categorical variable and quantified here as a fraction of normal worm motility. […]

[7] = EMO1L, 0.15 mg/kg IV single dose, individual animals in order B0696, B0698, B0700, B0722, B0730, B0731, B0762

CC(C)C[C@H]1C(=O)O[C@H](Cc2ccc(N3CCOCC3)cc2)C(=O)N(C)[C@@H](CC(C)C)C(=O)O[C@H](C)C(=O)N(C)[C@@H](CC(C)C)C(=O)O[C@H](Cc2ccc(N3CCOCC3)cc2)C(=O)N(C)[C@@H](CC(C)C)C(=O)O[C@H](C)C(=O)N1C [emodepside]
no-observed-adverse-effect level [1]: 4 to 5 mg/kg | Time of observed Cmax in plasma ([2]; EMO1H, 0.75 mg/kg IV single dose, animals in order B0054, B0405, B0439, B0726, B0728): 5 min | tlast in plasma ([2]; EMO1H, 0.75 mg/kg IV single dose, individual animals in order B0054, B0405, B0439, B0721, B0726, B0727, B0728): 168 h (2×) and 504 h (4×) and 336 h | Model tmax in plasma ([2]; EMO1H, 0.75 mg/kg IV single dose): 0.083 h | Time of observed Cmax in plasma [2, 7]: 5 min (6×) and 30 min | tlast in plasma [2, 7]: 168 h (3×) and 336 h (2×) and 504 h | Model tmax in plasma ([2]; EMO1L, 0.15 mg/kg IV single dose): 0.083 h | tlast in plasma ([2]; EMO7H, 0.75 mg/kg IV daily for 7 days, individual animals in order B0404, B0434, B0694, B0695, B0734, B0750, B0765): 504 h | Model tmax in plasma ([2]; EMO7H, 0.75 mg/kg IV daily for 7 days): 144 h | tlast in plasma ([2]; EMO7L, 0.15 mg/kg IV daily for 7 days, individual animals in order B0228, B0407, B0549, B0725, B0733, B0735, B0761): 336 h and 504 h (6×) | Model tmax in plasma ([2]; EMO7L, 0.15 mg/kg IV daily for 7 days): 144 h | Tmax ([2]; Ngaoundéré Gudali zebu, plasma, 0.15 mg/kg, EMO7L, 0.15 mg/kg IV daily for 7 days, animals in order B0228, B0407, B0735, B0761): 1440 min | Tmax ([2]; Ngaoundéré Gudali zebu, plasma, 0.15 mg/kg, EMO7L, 0.15 mg/kg IV daily for 7 days, animals in order B0549, B0725, B0733): 5 min | Tmax ([2]; Ngaoundéré Gudali, plasma, 0.75 mg/kg, EMO7H, 0.75 mg/kg IV daily for 7 days, animals in order B0434, B0695, B0734): 5 min | Terminal half-life ([2]; plasma, derived from observed data and aggregated through the PK model, all dose groups): approximately 106 h | Blood glucose, group-level 95% CI vs reference range 45–75 mg/dL ([3]; EMO1H, 0.75 mg/kg single dose, at 30 min, 2 and 6 h): significantly above the standard reference range | Blood glucose, group-level 95% CI vs reference range 45–75 mg/dL ([3]; EMO1L, 0.15 mg/kg single dose, at 30 min, 2 and 6 h): significantly above the standard reference range | Blood glucose, group-level 95% CI vs reference range 45–75 mg/dL ([3]; EMO7H, 0.75 mg/kg daily for 7 days, at 2 h): significantly above the standard reference range

NCCS[As](SCCN)c1ccc(Nc2nc(N)nc(N)n2)cc1 [melarsomine]
AUC for all embryonic stages [4]: significantly reduced | MTT reduction, worms recovered [5]: no intact worms were recovered | Fraction of normal adult male worm motility [6]: 0% | Blood glucose, group-level 95% CI vs reference range 45–75 mg/dL ([3]; MRSM, 4 mg/kg every other day for 3 days, at 5 and 30 min and 2 h): significantly above the standard reference range
